Measurements published in US6281355A, “Nitrogen-containing tetracyclic compounds” (Taisho Pharmaceutical Co., Ltd., priority 1997, dated 2001).
Each block holds one molecule with its values, some of them ahead of it.

Biological target: T1, mitochondrial diazepam binding inhibitor receptor (MDR) (Rattus norvegicus, UniProt P16257)
T1 construct: Crude mitochondria fractions prepared from rat cerebral cortex were used as a receptor sample; from tissue; host or cells: rat cerebral cortex, crude mitochondria fraction
Assay: MDR Receptor Binding Assay ([3H]PK11195 binding to crude mitochondria fraction of rat cerebral cortex)
Conditions: inhibition of [3H]PK11195 (2 nM) binding; rat cerebral cortex crude mitochondria 1.0 mg protein/ml; 4° C., 90 minutes; non-specific: 10 μM PK11195
Method: Experiment [MDR Receptor Binding Assay]
Crude mitochondria fractions prepared from rat cerebral cortex were used as a receptor sample, and [^3 H]PK11195 was used as a [^3 H]-labeled ligand.
A binding assay using the [^3 H]-labeled ligand was carried out according to the following method as described in Journal of Pharmacology and Experimental Therapeutics, 262, 971(1992).
Preparation of Receptor Sample: Rat cerebral cortex was homogenized using a Teflon-coated homogenizer in a 10 mM HEPES buffer (pH 7.4) containing 0.32 M sucrose in ten volumes of the wet weight. The homogenate was centrifuged at 900× g for 10 minutes, and the resulting supernatant was centrifuged at 9,000× g for 10 minutes. The precipitate was suspended in a HEPES buffer to give a protein concentration of 1 mg/ml, and centrifuged at 12,000× g for 10 minutes. The resulting precipitate was suspended in a 50 mM HEPES buffer (pH 7.4) to give a crude mitochondria fraction.
MDR Binding Assay: Mitochondria sample (1.0 mg protein/ml), [^3 H]PK11195 (2 nM) and the test drug were reacted at 4° C. for 90 minutes.
After completion of the reaction, the reaction mixture was filtered with suction through a glass filter (GF/B) treated with 0.3% polyethyleneimine,and the radioactivity on the filter was measured by a liquid scintillation spectrometer.
The binding at the reaction in the presence of 10 μM PK11195 was defined as non-specific binding of [^3 H]PK11195, and the difference between total binding and non-specific binding was defined as specific binding.

T1 sequence (P16257 whole entry): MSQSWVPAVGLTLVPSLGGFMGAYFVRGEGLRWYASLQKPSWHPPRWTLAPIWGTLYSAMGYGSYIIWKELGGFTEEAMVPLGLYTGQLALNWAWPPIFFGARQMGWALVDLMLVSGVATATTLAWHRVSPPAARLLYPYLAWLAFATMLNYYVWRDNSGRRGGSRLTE

SMILES: CCCCCCN(CCCCCC)C(=O)C1Sc2ccccc2-c2[nH]c3ccccc3c21 (single isomer, unassigned; (-)) [Compound 07, (-)-N,N-Dihexyl-6,11-dihydro-5-thia-11-aza-benzo[a]fluoren-6-carboxamide]
- IC50: 42.3 nM

SMILES: CCCNC(=O)C1Sc2ccccc2-c2[nH]c3ccccc3c21 (stereo not drawn) [Compound 02]
- IC50: 55.9 nM

SMILES: CN(C)C(=O)C1Sc2ccccc2-c2[nH]c3ccccc3c21 (stereo not drawn) [Compound 03]
- IC50: 38.5 nM

SMILES: CCCCCCN(CCCCCC)C(=O)C1Sc2ccccc2-c2[nH]c3ccc(F)cc3c21 (stereo not drawn) [Compound 09]
- IC50: 13.8 nM

SMILES: CCCCCCN(CCCCCC)C(=O)C1Sc2ccccc2-c2[nH]c3ccc(Cl)cc3c21 (stereo not drawn) [Compound 10]
- IC50: 20.1 nM

SMILES: CCCCCCN(CCCCCC)C(=O)C1Sc2ccccc2-c2[nH]c3ccc(C)cc3c21 (stereo not drawn) [Compound 11]
- IC50: 13.9 nM

SMILES: CCCCCCN(CCCCCC)C(=O)C1Sc2ccccc2-c2[nH]c3c(F)cc(F)cc3c21 (stereo not drawn) [Compound 12]
- IC50: 22.1 nM

SMILES: CCCN(CCC)C(=O)C1Cc2ccccc2-c2nc3ccccc3n21 (stereo not drawn) [Compound 25]
- IC50: 73.9 nM

SMILES: CCCCCCN(CCCCCC)C(=O)C1Cc2ccccc2-c2nc3ccccc3n21 (stereo not drawn) [Compound 26, N,N-dihexyl-5,6-dihydro-benzo[4,5]imidazo[2,1-a]isoquinoline-6-carboxamide]
- IC50: 42.3 nM

SMILES: CCCCCCN(CCCCCC)C(=O)C1c2c([nH]c3ccccc23)-c2ccccc2N1C=O (stereo not drawn) [Compound 27]
- IC50: 35.1 nM

SMILES: CCCCCCN(CCCCCC)C(=O)C1c2c([nH]c3ccccc23)-c2ccccc2N1C(C)=O (stereo not drawn) [Compound 28]
- IC50: 12.6 nM

Stronger by IC50, values ahead:

- IC50: 4.98 nM
SMILES: COCCN(CCOC)C(=O)C1Sc2ccccc2-c2[nH]c3ccccc3c21 (stereo not drawn) [Compound 15]

- IC50: 3.76 nM
SMILES: CCCCCCN(CCCCCC)C(=O)C1Sc2ccccc2-c2[nH]c3ccccc3c21 (racemic) [Compound 06, N,N-Dihexyl-6,11-dihydro-5-thia-11-aza-benzo[a]fluoren-6-carboxamide]

- IC50: 2.15 nM
SMILES: CCCCCCN(CCCCCC)C(=O)C1Sc2ccccc2-c2[nH]c3ccccc3c21 (single isomer, unassigned; (+)) [Compound 08, (+)-N,N-Dihexyl-6,11-dihydro-5-thia-11-aza-benzo[a]fluoren-6-carboxamide]

- IC50: 1.35 nM
SMILES: CCCCCCN(CCOCCC)C(=O)C1Sc2ccccc2-c2[nH]c3ccccc3c21 (stereo not drawn) [Compound 14]

- IC50: 1.35 nM
SMILES: CCCCCCN(CCCCCC)C(=O)C1Sc2ccccc2-c2c1c1ccccc1n2C (stereo not drawn) [Compound 16, N,N-Dihexyl-6,11-dihydro-11-methyl-5-thia-11-aza-benzo[a]fluoren-6-carboxamide]

- IC50: 1.35 nM
SMILES: CCCCCCN(CCCCCC)C(=O)C1Cc2ccccc2-c2[nH]c3ccccc3c21 (stereo not drawn) [Compound 23]

- IC50: 1.23 nM
SMILES: CCCCCCN(CCCCCC)C(=O)C1c2c([nH]c3ccccc23)-c2ccccc2S1(=O)=O (stereo not drawn) [Compound 22]

- IC50: 1.12 nM
SMILES: CCCN(CCC)C(=O)C1c2c([nH]c3ccccc23)-c2ccccc2S1(=O)=O (stereo not drawn) [Compound 21, N,N-dipropyl-6,11-dihydro-5-thia-11-aza-benzo[a]fluoren-6-carboxamide 5,5-dioxide]

- IC50: 0.443 nM
SMILES: CCN(CC)C(=O)C1Sc2ccccc2-c2[nH]c3ccccc3c21 (stereo not drawn) [Compound 04]

- IC50: 0.368 nM
SMILES: CCCN(CCC)C(=O)C1Sc2ccccc2-c2[nH]c3ccccc3c21 (stereo not drawn) [Compound 05, N,N-dipropyl-6,11-dihydro-5-thia-11-aza-benzo[a]fluoren-6-carboxamide]
